Test results as given in patent US20260008768A1, “UREA DERIVATIVES FOR INHIBITING NLRP3 AND USES THEREOF” (VENTUS THERAPEUTICS U.S., INC., priority 2023, published 2026).
One block for each compound: values may come before it.

What was measured:
[1] = target: T1, human NLRP3 (Homo sapiens, UniProt Q96P20); test: Human PBMC NLRP3 Assay (LPS priming, ATP stimulation, cytokine measurement); type: cell-based; design: host or cells: human PBMCs (A2); human whole blood from healthy volunteers (A3); conditions: for IC50: human PBMC, LPS + ATP
Procedure: Reagents: Human PBMCs (Normal): iXCells Cat #10HU-003; RPMI 1640 medium with GlutaMAX: ThermoFisher Cat #61870127 (Complete Media: 4.5 g/L D-glucose, 10% FBS, 100 mM NaPyr, 1% Pen/Strep, 10 mM HEPES and 0.05 mM of ®-mercaptoethanol; Assay Media: 4.5 g/L D-glucose, 100 mM NaPyr, 1% Pen/Strep, 10 mM HEPES and 0.05 mM of mercaptoethanol; 96-well V-bottom Plates: Costar Cat #3894; LPS (E. coli O26:B6): Sigma Cat #L2654, stock 5 mg/mL in PBS; ATP: Sigma Cat #A6419, prepared in a 250 mM stock in 1 M HEPES (adjusted to pH 7.4).
Cryopreserved PBMCs were rapidly thawed in a 37° C. water bath for 2 min. Cells were then centrifuged at 1200 RPM for 5 min and resuspended in ˜50 mL of fresh RPMI 1640 Complete Medium. A count was undertaken using a hemocytometer and adjusted to 2.5×10^5 cells/mL. V-shaped 96-well plates were seeded with 200 μL of PBMCs (5×10^4) per well and subsequently incubated overnight at 37° C. with 5% CO2. Assay Media was then prepared containing 100 ng/ml of LPS. PBMCs were then centrifuged at 1,200 RPM for 5 min, serum containing media was aspirated, and 150 μL/well of Assay Media+LPS was immediately added. Assay Media without LPS was added in the untreated control wells. Cells were then primed with LPS for 4 h at 37° C. with 5% CO2. A concentration response curve (CRC) was prepared of 1000× test compound in 100% DMSO. The CRC was then diluted 1:50 in Assay Media and then further diluted by 1:5× in Assay Media resulting in a final 4×CRC in 0.4% DMSO/Assay Media. 50 μL/well of 4× test compound CRC or vehicle (0.4% DMSO/Assay Media) was then transferred into each well and subsequently incubated for 30 min at 37° C. with 5% CO2. Cells were stimulated by adding 4 μL of 250 mM ATP, using a 250 mM stock prepared in 1 M Hepes without further dilution (for a final concentration of 5 mM), for 1 h at 37° C. with 5% CO2 Plates were then centrifuged at 1200 RPM for 5 min; and 50 μl of the media was transferred to a clean 96-well storage plate for cytokine measurements using the mesoscale platform, and stored at −80° C. until analyzed. Compounds were added 30 minutes before priming the cells with LPS when TNFα was required to be quantified in the cytokine panel to confirm selectivity.
PBMC NLRP3 IC50 assay results, as a measurement of cellular potency, are provided in Table B. “A” activity=<0.01 uM; “B” activity=0.01-0.1 uM; “C” activity=>0.1-0.5 uM; “D” activity=>0.5 uM.

[2] = target: T1, human NLRP3; test: Scintillation Proximity (SPA) NLRP3 Assay, displacement of 3H-MCC950; type: binding; conditions: for IC50: displacement of 3H-MCC950 from human NLRP3; for fold improvement in binding activity (SPA IC50): relative to Comparative Example B1
Procedure, shortened: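 Human NLRP3 (350 nM) preincubated 15 min at RT with compound (5% DMSO final) in HEPES pH 7.5 buffer with 100 μM ADP, then 125 nM 3H-MCC950 added for 60 min. Copper PVT SPA beads added; counts read 6 h later. Specific binding = signal minus no-protein wells, duplicates averaged; IC50 reported.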

[3] = target: T1, human NLRP3; test: Human Whole Blood (hWB) NLRP3 Assay (LPS/ATP, IL-1β); type: cell-based; design: host or cells: human whole blood from healthy volunteers (A3); conditions: Table B, activity class
Procedure: Human whole blood is drawn from healthy volunteers after obtaining written informed consent. Heparin lithium coated tubes are used to collect blood from volunteers. Blood samples are distributed on 96 well plates using 90 μl per well.
Priming procedure: Priming is performed by adding 5 μl of LPS (O26:B6; Sigma L-2654) at a final concentration of 1 μg/ml for 4.5 hours in a humidified incubator with 37° C., 5% CO2. Thirty minutes prior to NLRP3 activation, 5 μl of a 20× compound solution or vehicle (2% dimethylsulfoxide (DMSO)) is added to each well and plates were incubated on a shaker (450 rpm) in a humidified incubator with 37° C., 5% CO2.
Alternative priming procedure: Thirty minutes prior to LPS priming, 5 μl of a 20× compound solution or vehicle (2% dimethylsulfoxide (DMSO)) is added to each well and plates were incubated on a shaker (450 rpm) in a humidified incubator with 37° C., 5% CO2. Priming is performed by adding 5 μl of LPS (O26:B6; Sigma L-2654) at a final concentration of 1 μg/ml for 5 hours in a humidified incubator with 37° C., 5% CO2.
Activation is then performed by adding 3.3 μl of a 31×ATP solution per well. At the end of the 30 minutes stimulation, the plates are centrifuged (800 g, 10 min, room temperature) and the plasma from each well is frozen at −80° C. IL-1β levels in the supernatant were analyzed using a mesoscale discovery assay (MSD K151TUK) according to the manufacturers' instructions.
There is no detectable difference in assay results using the priming procedure versus the alternative priming procedure.
hWB NLRP3 IC50 assay results, as a measurement of whole blood potency, are provided in Table B. “A” activity=<1 uM; “B” activity=1-2 uM; “C” activity=>2-3 uM; “D” activity=>3 uM.

T1 sequence (Q96P20 whole entry): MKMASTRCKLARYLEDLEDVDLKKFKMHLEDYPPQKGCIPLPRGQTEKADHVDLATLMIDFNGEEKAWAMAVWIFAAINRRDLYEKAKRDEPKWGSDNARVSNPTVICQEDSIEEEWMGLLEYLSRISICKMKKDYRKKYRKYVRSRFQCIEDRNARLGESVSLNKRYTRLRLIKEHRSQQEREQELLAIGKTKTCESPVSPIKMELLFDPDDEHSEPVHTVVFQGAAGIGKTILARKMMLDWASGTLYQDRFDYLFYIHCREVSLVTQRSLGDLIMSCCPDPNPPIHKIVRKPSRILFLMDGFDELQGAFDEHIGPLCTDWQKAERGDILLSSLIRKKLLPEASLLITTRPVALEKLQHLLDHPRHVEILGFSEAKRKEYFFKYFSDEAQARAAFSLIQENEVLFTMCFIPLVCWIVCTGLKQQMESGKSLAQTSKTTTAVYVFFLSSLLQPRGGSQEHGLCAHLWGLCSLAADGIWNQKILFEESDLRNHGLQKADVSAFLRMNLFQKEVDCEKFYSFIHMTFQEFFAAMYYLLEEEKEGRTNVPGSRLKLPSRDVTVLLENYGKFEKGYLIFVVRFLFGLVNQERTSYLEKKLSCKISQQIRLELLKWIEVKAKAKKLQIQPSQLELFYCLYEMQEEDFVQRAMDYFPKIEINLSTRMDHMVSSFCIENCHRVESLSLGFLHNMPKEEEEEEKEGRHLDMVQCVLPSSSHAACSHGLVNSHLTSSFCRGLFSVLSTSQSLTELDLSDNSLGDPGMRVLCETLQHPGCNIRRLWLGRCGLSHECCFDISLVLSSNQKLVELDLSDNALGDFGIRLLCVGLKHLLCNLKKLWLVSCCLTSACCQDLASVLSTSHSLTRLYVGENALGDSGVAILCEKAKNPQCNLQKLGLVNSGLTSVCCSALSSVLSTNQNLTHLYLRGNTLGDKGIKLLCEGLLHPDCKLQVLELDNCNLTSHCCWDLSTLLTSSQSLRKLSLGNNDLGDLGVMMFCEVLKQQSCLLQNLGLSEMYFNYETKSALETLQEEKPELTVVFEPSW

IC50 ([1]; Table B, activity class): < 10 nM
IC50 ([1]; Table C): 9 nM
IC50 ([2]; Table B, activity class): < 1000 nM
IC50 ([2]; Table C): 240 nM
Compound: C[C@@H]1CCN(c2nnn[nH]2)C[C@H](NC(=O)N(C)c2ccc(Cl)cc2Cl)C1 (single isomer, unassigned) [7A*]

IC50 ([1]; Table B, activity class): < 10 nM
IC50 ([2]; Table B, activity class): < 1000 nM
Compound: C[C@@H]1CCN(c2nnn[nH]2)C[C@H](NC(=O)N(C)c2ccc(C3CC3)cc2)C1 (single isomer, unassigned) [8A*]

IC50 ([1]; Table B, activity class): 10 to 100 nM
IC50 ([2]; Table B, activity class): < 1000 nM
Compound: C[C@@H]1CCN(c2nnn[nH]2)C[C@H](NC(=O)N(C)c2ccc(C(F)(F)F)c(F)c2)C1 (single isomer, unassigned) [9A*]

IC50 ([2]; Table B, activity class): < 1000 nM
IC50 [3]: 1000 to 2000 nM
Compound: C[C@@H]1CCN(c2nnn[nH]2)C[C@H](NC(=O)N(C)c2ccc(C(F)F)c(F)c2)C1 (single isomer, unassigned) [22A*]

IC50 ([2]; Table B, activity class): < 1000 nM
IC50 [3]: 1000 to 2000 nM
Compound: C[C@@H]1CCN(c2nnn[nH]2)C[C@H](NC(=O)N(C)c2ccc(OC(F)(F)F)c(OC(F)F)c2)C1 (single isomer, unassigned) [25A*]

IC50 ([2]; Table B, activity class): 10000 to 50000 nM
IC50 [3]: > 3000 nM
Compound: C[C@@H]1CCN(c2nnn[nH]2)C[C@H](NC(=O)N(C)c2cnc(C(F)(F)F)cn2)C1 (single isomer, unassigned) [32A*]

IC50 ([2]; Table B, activity class): 1000 to 10000 nM
IC50 [3]: > 3000 nM
Compound: C[C@H]1CCN(c2nnn[nH]2)C[C@@H](NC(=O)N(C)c2ccc(OC(F)F)c(F)c2F)C1 (single isomer, unassigned) [40D*]

IC50 ([2]; Table B, activity class): < 1000 nM
IC50 [3]: 2000 to 3000 nM
Compound: C[C@@H]1CCN(c2nnn[nH]2)C[C@H](NC(=O)N(CC2CC2)c2ccc(OC(F)(F)F)cc2)C1 (single isomer, unassigned) [44A*]

Compound: C[C@@H]1C[C@@H](NC(=O)N(C)c2ccc(OC(F)F)c(F)c2F)[C@H]2CC[C@@H]1N2c1nnn[nH]1 (single isomer, unassigned) [58A*]
IC50 [3]: < 1000 nM

IC50 ([1]; Table C): > 100000 nM
Compound: CN(C(=O)N[C@@H]1CCN(c2nnn[nH]2)C1)c1ccc(Cl)cc1 (single isomer, unassigned) [Comparative Example A*, reference compound]

IC50 ([1]; Table C): > 5000 nM
IC50 ([2]; Table C): 190000 nM
Compound: O=C(Nc1ccc(Cl)cc1)Nc1cccc(-c2nnn[nH]2)c1 [Comparative Example B1, 1-(3-(1H-tetrazol-5-yl)phenyl)-3-(4-chlorophenyl)urea, reference compound]

IC50 ([1]; Table C): 4200 nM
IC50 ([2]; Table C): 12500 nM
fold improvement in binding activity (SPA IC50) [2]: > 15 fold
Compound: CN(C(=O)Nc1cccc(-c2nnn[nH]2)c1)c1ccc(Cl)cc1 [Comparative Example B2, 3-(3-(1H-tetrazol-5-yl)phenyl)-1-(4-chlorophenyl)-1-methylurea, reference compound]

IC50 ([1]; Table C): 58100 nM
Compound: CN(C(=O)N(C)[C@@H]1CCCN(c2nnn[nH]2)C1)c1ccc(Cl)cc1 [Comparative Example C2, (R)-1-(1-(1H-tetrazol-5-yl)piperidin-3-yl)-3-(4-chlorophenyl)-1,3-dimethylurea, reference compound]

IC50 ([1]; Table C): 39100 nM
Compound: CN(C(=O)N[C@@H]1CCCN(c2ccccc2)C1)c1ccc(Cl)cc1 [Comparative Example D1, (R)-1-(4-chlorophenyl)-1-methy1-3-(1-phenylpiperidin-3-yl)urea, reference compound]

IC50 ([1]; Table C): > 100000 nM
Compound: CN(C(=O)N[C@H]1CCCN(c2ccccc2)C1)c1ccc(Cl)cc1 [Comparative Example D2, (S)-1-(4-chlorophenyl)-1-methyl-3-(1-phenylpiperidin-3-yl)urea, reference compound]

IC50 ([1]; Table C): 15500 nM
Compound: CN(C(=O)N[C@@H]1CCCN(c2nnnn2C)C1)c1ccc(Cl)cc1 [Comparative Example F, (R)-1-(4-chlorophenyl)-1-methyl-3-(1-(1-methy1-1H-tetrazol-5-yl)piperidin-3-yl)urea, reference compound]

IC50 ([1]; Table C): > 100000 nM
Compound: O=C(N[C@@H]1CCCN(c2nnn[nH]2)C1)c1ccc(Cl)cc1 [Comparative Example G, (R)-N-(1-(1H-tetrazol-5-yl)piperidin-3-yl)-4-chlorobenzamide, reference compound]

IC50 ([1]; Table C): > 100000 nM
Compound: O=C(N[C@@H]1CCCN(c2ccccc2)C1)c1ccc(Cl)cc1 [Comparative Example J1, (R)-4-chloro-N-(1-phenylpiperidin-3-yl)benzamide, reference compound]

IC50 ([1]; Table C): > 100000 nM
Compound: O=C(N[C@H]1CCCN(c2ccccc2)C1)c1ccc(Cl)cc1 [Comparative Example J2, (S)-4-chloro-N-(1-phenylpiperidin-3-yl)benzamide, reference compound]

IC50 ([1]; Table B, activity class): 100 to 500 nM
IC50 ([1]; Table C): 268 nM
fold increase in potency as measured by PBMC IC50 ([1]; relative to Comparative Example A*): > 350 fold
fold improvement in potency (PBMC IC50) ([1]; relative to Comparative Example B1): > 18 fold
fold increase in potency as measured by PBMC IC50 ([1]; relative to Comparative Example B2): > 15 fold
fold improvement in potency (PBMC IC50) ([1]; relative to Comparative Example C1): 40 fold
fold improvement in potency (PBMC IC50) ([1]; relative to Comparative Example C2): > 200 fold
fold increase in potency (PBMC IC50) ([1]; relative to Comparative Example D1): 146 fold
fold increase in potency (PBMC IC50) ([1]; relative to Comparative Example D2): > 350 fold
fold increase in potency (PBMC IC50) ([1]; relative to Comparative Example F): 58 fold
fold increase in potency (PBMC IC50) ([1]; relative to Comparative Example G): > 350 fold
fold increase in potency (PBMC IC50) ([1]; relative to Comparative Example H): 39 fold
fold increase in potency (PBMC IC50) ([1]; relative to Comparative Example J1): > 350 fold
fold increase in potency (PBMC IC50) ([1]; relative to Comparative Example J2): > 350 fold
IC50 ([2]; Table B, activity class): 1000 to 10000 nM
IC50 ([2]; Table C): 9700 nM
fold improvement in binding activity (SPA IC50) [2]: > 19 fold
Compound: CN(C(=O)N[C@@H]1CCCN(c2nnn[nH]2)C1)c1ccc(Cl)cc1 [Compound 2A, (R)-3-(1-(1H-tetrazol-5-yl)piperidin-3-yl)-1-(4-chlorophenyl)-1-methylurea]

IC50 ([1]; Table B, activity class): 10 to 100 nM
IC50 ([2]; Table B, activity class): < 1000 nM
Compound: CCN(C(=O)N[C@@H]1C[C@H](C)CN(c2nnn[nH]2)C1)c1ccc(Cl)cc1 [Compound 6A, 1-(4-chlorophenyl)-1-ethyl-3-((3R,5S)-5-methyl-1-(1H-tetrazol-5-yl)piperidin-3-yl)urea]

IC50 ([1]; Table B, activity class): > 500 nM
IC50 ([1]; Table C): 892 nM
Compound: CN(C(=O)N[C@@H]1CCCN(c2nnn[nH]2)C1)c1ccc(Cl)cc1F [Compound 66, (R)-3-(1-(1H-tetrazol-5-yl)piperidin-3-yl)-1-(4-chloro-2-fluorophenyl)-1-methylurea]
